Several values for one entry are separate records, joined by “and”; a condition that tells them apart may be missing. Equal values may be shown once.
Legend:
[1] = system: Aspergillus niger ATCC 6275; assay: MIC in the agar incorporation test; type: cell-based; details: Sabouraud 4% glucose agar, 3 days at 28° C., unit not given, method gives agar concentrations in ppm
Procedure: (§1) Test solution: 1% stock solutions of all the test substances are prepared in a suitable solvent and diluted in serial dilutions as far as possible so that final concentrations of from 500 ppm to 10 ppm are obtained in the agar. Test principle: 0.3 ml of the particular dilution stage is mixed with 15 ml of still liquid nutrient medium. After solidification of the nutrient base, 10 μl of the test strains in a suitable organism dilution in 0.85% NaCl solution are applied point-wise to the agar medium: [table]

[2] = system: Candida albicans ATCC 10231; assay: MIC in the agar incorporation test; type: cell-based; details: Sabouraud 4% glucose agar, 3 days at 28° C., unit not given, method gives agar concentrations in ppm
Procedure: as §1

[3] = system: Corynebacterium minutissimum ATCC 23348; assay: MIC in the agar incorporation test; type: cell-based; details: unit not given, method gives agar concentrations in ppm
Procedure: as §1

[4] = system: Escherichia coli ATCC 10536; assay: MIC in the agar incorporation test; type: cell-based; details: 24 hours at 37° C., unit not given, method gives agar concentrations in ppm
Procedure: as §1

[5] = system: Escherichia coli NCTC 8196; assay: MIC in the agar incorporation test; type: cell-based; details: 24 hours at 37° C., unit not given, method gives agar concentrations in ppm
Procedure: as §1

[6] = system: Klebsiella pneumoniae ATCC 4352; assay: MIC in the agar incorporation test; type: cell-based; details: unit not given, method gives agar concentrations in ppm
Procedure: as §1

[7] = system: Propionibacterium acnes ATCC 6919; assay: MIC in the agar incorporation test; type: cell-based; details: unit not given, method gives agar concentrations in ppm
Procedure: as §1

[8] = system: Proteus vulgaris ATCC 6896; assay: MIC in the agar incorporation test; type: cell-based; details: unit not given, method gives agar concentrations in ppm
Procedure: as §1

[9] = system: Pseudomonas aeruginosa ATCC 15442; assay: MIC in the agar incorporation test; type: cell-based; details: 24 hours at 37° C., unit not given, method gives agar concentrations in ppm
Procedure: as §1

[10] = system: Salmonella choleraesuis ATCC 9184; assay: MIC in the agar incorporation test; type: cell-based; details: unit not given, method gives agar concentrations in ppm
Procedure: as §1

[11] = system: Staphylococcus aureus ATCC 6538; assay: MIC in the agar incorporation test; type: cell-based; details: 24 hours at 37° C., unit not given, method gives agar concentrations in ppm
Procedure: as §1

[12] = system: Staphylococcus aureus ATCC 9144; assay: MIC in the agar incorporation test; type: cell-based; details: 24 hours at 37° C., unit not given, method gives agar concentrations in ppm
Procedure: as §1

[13] = system: Staphylococcus epidermidis ATCC 12228; assay: MIC in the agar incorporation test; type: cell-based; details: unit not given, method gives agar concentrations in ppm
Procedure: as §1

[14] = system: A. actinomycetemcomitans ATCC43718; assay: MIC against oral organisms in the serial dilution test; type: cell-based, Actinobacillus actinomycetemcomitans; details: thioglycolate broth, 24 h aerobic with 10% CO2, unit not given, stock solutions in ppm (w/w)
Excerpt: (§2) Determination of the MIC Against Various Oral Organisms in the Serial Dilution Test
(§3) Medium: Thioglycolate broth with hemin and menadione • Columbia broth with hemin and menadione for P. gingivalis and P. nigrescens
(§4) Dilution medium: The appropriate amount of the substances was pipetted directly onto the medium.
(§5) Test organisms: Actinobacillus actinomycetemcomitans ATCC 43718 • Streptococcus gordonii ATCC 10558 • Streptococcus mutans ATCC 33402 • Actinomyces viscosus ATCC 43146 • Fusobacterium nucleatum subsp. polymorphum ATCC 10953 • Porphyromonas gingivalis ATCC 33277 • Prevotella nigrescens ATCC 33563
(§6) Incubation: 7-10 days at 37° C. anaerobic, or 24 h aerobic with 10% CO2for Streptococci and A. actinomycetemcomitans
(§7) Test solution: Stock solutions of all the test substances in ethanol comprising 1500 ppm (w/w) are used.
(§8) Bacteria are removed from blood agar plates using cotton-wool-tipped sticks and a suitable O.D. is established in the appropriate medium (McFarland 0.5); this solution is used undiluted for F. nucleatum and P. nigrescens and diluted 1:20 for the other strains. 0.1 ml of bacteria culture is added to 2 ml of each of the active substance solutions, and incubation is carried out as described above.

S. gordonii ATCC10558 = assay: as above; type: cell-based, Streptococcus gordonii; details: thioglycolate broth, 24 h aerobic with 10% CO2, unit not given, stock solutions in ppm (w/w)
Excerpt: as §2, §3, §4, §5, §6, §7, §8

S. mutans ATCC33402 = assay: as above; type: cell-based, Streptococcus mutans; details: thioglycolate broth, 24 h aerobic with 10% CO2, unit not given, stock solutions in ppm (w/w)
Excerpt: as §2, §3, §4, §5, §6, §7, §8

A. viscosus ATCC43146 = assay: as above; type: cell-based, Actinomyces viscosus; details: thioglycolate broth, 7-10 days at 37° C. anaerobic, unit not given, stock solutions in ppm (w/w)
Excerpt: as §2, §3, §4, §5, §6, §7, §8

[15] = system: F. nucleatum subsp. polymorphum ATCC10953; assay: as above; type: cell-based, Fusobacterium nucleatum subsp. polymorphum; details: thioglycolate broth, 7-10 days at 37° C. anaerobic, unit not given, stock solutions in ppm (w/w)
Excerpt: as §2, §3, §4, §5, §6, §7, §8

P. gingivalis ATCC3277 = assay: as above; type: cell-based, Porphyromonas gingivalis; details: Columbia broth with hemin and menadione, 7-10 days at 37° C. anaerobic, unit not given, stock solutions in ppm (w/w)
Excerpt: as §2, §3, §4, §5, §6, §7, §8

P. nigrescens ATCC33563 = assay: as above; type: cell-based, Prevotella nigrescens; details: Columbia broth with hemin and menadione, 7-10 days at 37° C. anaerobic, unit not given, stock solutions in ppm (w/w)
Excerpt: as §2, §3, §4, §5, §6, §7, §8

[16] = system: Actinomyces viscosus ATCC 43146; assay: Substantivity on hydroxyapatite and growth-inhibiting action; type: cell-based; details: plates pretreated with synthetic saliva, incubated in ethanolic solution comprising 50 and 500 ppm; 24 hours at 37° C.; in comparison with an untreated control (FIGS. 1 and 2)
Procedure: Principle: apatite plates (dia. 10 mm) are placed in synthetic saliva (Deutsche Zahnärztliche Zeitschrift DZZ May 2002), rinsed in NaCl and then incubated in an ethanolic solution of test substances (II) and (III) comprising 50 and 500 ppm. The plates are then introduced into a Nunclon Surface titre plate (12 wells) and incubated for 24 hours at 37° C. in Caso nutrient medium which has been inoculated with Actinomyces viscosus ATCC 43146 (about 10^5/ml).

[17] = system: biofilm of a defined mixed culture of gram+ and gram− oral organisms and a yeast (Candida albicans) on hydroxyapatite discs; assay: Activity in the biofilm model (in vitro supragingival plaque); type: cell-based; details: 0.5% substance (II) in mouthwash formulation
Excerpt: Test of the Activity of 2-dodecyloxy-benzoic Acid (II) in the Biofilm Model
Principle: see Guggenheim et a/. (2001), “Validation of an in vitro biofilm model of supragingival plaque”, J. Dent Res. 80 (1)
Hydroxyapatite discs are pretreated with human saliva and a biofilm of a defined mixed culture of various gram+ and gram− oral organisms (Streptococci, Actinomyces sp., Veillonella & Fusobacterium sp. & others) and a yeast (Candida albicans) are allowed to grow on the hydroxyapatite. During the test period of 4 days, the discs are immersed, several times in all, in the below given application formulation of the substance (II),
and at the end the biofilm is harvested and the number of living cells is determined.

| SMILES | Minimum Inhibitory Concentration (MIC) [1] | Minimum Inhibitory Concentration (MIC) [2] | Minimum Inhibitory Concentration (MIC) [3] | Minimum Inhibitory Concentration (MIC) [4] | Minimum Inhibitory Concentration (MIC) [5] | Minimum Inhibitory Concentration (MIC) [6] | Minimum Inhibitory Concentration (MIC) [7] | Minimum Inhibitory Concentration (MIC) [8] | Minimum Inhibitory Concentration (MIC) [9] | Minimum Inhibitory Concentration (MIC) [10] | Minimum Inhibitory Concentration (MIC) [11] | Minimum Inhibitory Concentration (MIC) [12] | Minimum Inhibitory Concentration (MIC) [13] | MIC [14] | MIC (S. gordonii ATCC10558) | MIC (S. mutans ATCC33402) | MIC (A. viscosus ATCC43146) | MIC [15] | MIC (P. gingivalis ATCC3277) | MIC (P. nigrescens ATCC33563) | further results |
| --- | --- | --- | --- | --- | --- | --- | --- | --- | --- | --- | --- | --- | --- | --- | --- | --- | --- | --- | --- | --- | --- |
| CCCCCCCCCCCCOc1ccccc1C(=O)O [II, 2-dodecyloxy-benzoic acid] | >500 | >500 | 15.63 | >500 | >500 | >500 | 15.63 | >500 | >500 | >500 | 31.25 | 31.25 | 15.63 | >15 | 15 | 7.5 | 1.88 | >15 | 7.5 | >15 | growth of Actinomyces viscosus after adsorption of the substance onto hydroxyapatite plates [16]: inhibition of the growth; number of living cells of the harvested biofilm (mean values) ([17]; discs immersed several times during 4 days, two independent tests): 1.2 × 10^5 CFU/disc and 1.7 × 10^5 CFU/disc; microbial count of the biofilm on the hydroxyapatite discs compared with the placebo formulation ([17]; test period of 4 days): marked reduction |
| CCCCCCCCCCCCCCCCOc1cc(C(=O)O)cc(C(=O)O)c1 [III, 5-hexadecyloxy-isophthalic acid] | >48 | >48 | 24 | >48 | >48 | >48 | 12 | >48 | >48 | >48 | 24 | 24 | 12 | 15 | ≦0.94 | 3.75 | 1.88 | >15 | ≦0.94 | >15 | growth of Actinomyces viscosus after adsorption of the substance onto hydroxyapatite plates [16]: inhibition of the growth |
